Structures can show the parent of a compound that is named as a salt.
Biological target: PDE4
Assay: In vitro enzyme assay: PDE4 inhibitory activity
Assay type: biochemical
Conditions: PDE4 enzyme solution from U937 cells (originated from human monocyte), 3H-cAMP substrate, room temperature 30 minutes
Description: U937 cells (originated from human monocyte) were cultured in PRMI 1640 medium containing 10% fetal bovine serum. The U937 cells were harvested and homogenized in 20 mM Tris-HCl buffer [pH 8.0, containing PMSF (1 mM), leupeptin (1 μg/ml) and pepstatin A (1 μg/ml)]. After centrifugation (at 15,000 rpm for 10 minutes), the supernatant was recovered and filtered through a 0.45 μm filter. The sample was applied to MonoQ (manufactured by Pharmacia, strong anion exchange resin) column and eluted by a density gradient of 0 to 0.8 M NaCl. Fractions from which the PDE activity was disappeared by 10 μM rolipram (a PDE4-selective inhibitor) were recovered and used as the enzyme solution for the measurement of PDE4 inhibitory activity.
The enzyme activity was measured by the following method. […] To an alumina column (100 μl), 50 μl of the supernatant was applied, eluted with 80 μl of 0.005 N hydrochloric acid, and radioactivity of the eluate was measured.
PDE4 inhibitory activity ratio of the compound of the present invention was calculated by the following equation: PDE4 inhibitory activity ratio (%)=(1−radioactivity in the presence of the compound of the present invention/radioactivity in the absence of the compound of the present invention)×100 […]

Work on `COc1ccc(C2(C#N)CCN(CC(=O)NO)CC2)cc1OC1CCCC1` [Example 3, N-hydroxy-2-(4-(3-cyclopentyloxy-4-methoxyphenyl)-4-cyanopiperidin-1-yl)acetamide·hydrochloride] yielded an IC50 of 30 pM.
